Experimental data from patent US20110318281A1, “Lactobacillus Salivarius SG-M6 for Improving Oral Bacterial Groups and Health Care Compositions Thereof” (SYNGEN BIOTECH CO., LTD., priority 2010, published 2011).

What was measured:
[1] = test system: artificially induced periodontal disease (ligature wire, Streptococcus mutans); assay: Evaluation of preventive effect for animal periodontal disease; format: in vivo, Balb/c mice; details: prevention groups; for periodontal pocket improvement percentage (percentage of improving individual): Mann-Whitney test vs pMT
Procedure: (§1) This trial included treatment groups and control groups. The treatment groups of Lactobacillus salivarius SG-M6 were divided into 6 groups as follows: 6 groups of dialyzed fermentation product concentrate of Lactobacillus salivarius SG-M6 included 15-fold, 10-fold, 5-fold, 4-fold, 2-fold, and 1-fold (unconcentrated fermentation broth). Two control groups included the treatment of 0.267 mg/mL of tetracycline and distilled water.
Twelve of 8-week-old female Balb/c mice were selected for each group (Table 2). The mice were administered with various concentrations of Lactobacillus salivarius SG-M6 fermentation product, 1 mL of 0.267 mg/mL tetracyccline or distilled water. […] Their pathological symptoms observed and recorded until sacrificing all animals. Until the control group (feeding with distilled water, mock-treated group) showing gum swelling and dental plaque appearance diagnosed by chief dentists, the ligature wire was removed and inoculation of dental pathogen was stopped. At day 4, 8, 12, and 16 after wire removal, mice periodontal pocket depth was examined, 3 mice from each group were killed for blood sampling, and samples were collected for histological analysis.
(§2) Control group was used as a standard to examine individuals in each group by Mann-Whitney test. Subjects with significant difference were defined as improving individuals. (number of improving Subject/number of total subject in group)×100%=improvement percentage of periodontal pocket depth.
(§3) Experimental data were shown as mean±S.D. The statistical variation of treatment group and control group of mice periodontal pocket were performed by One-Way ANOVA and Dunnett multiple post hoc comparison in longitudinal study, and by One-Way ANOVA and LSD multiple post hoc comparison in cross-sectional study. Besides, Mann-Whitney test was used for examining the number of periodontal pocket improving individuals. The p value of statistical significance level was 0.05.

[2] = test system: Streptococcus mutans (ATCC 25175); assay: Disc agar diffusion test; format: cell-based; details: 6 mm paper disc, 37, 24 hours, mean±S.D. (n=3)
Procedure: (§4) Lactobacillus salivarius SG-M6 were cultured in liquid medium. MRS medium was used in this embodiment. The bacteria were cultured at 30-37 for 15-24 hours. The fermentation broth was concentrated into 30-fold of original concentration, dialyzed by Spectra/Por®Dialysis Membrane (MWCO:3500, Spectrum Laboratories Inc, CA) for 48 hours, and diluted into various concentrations according to experimental requirements. […] Above four pathogens strains were purchased from Bioresource Collection and Research Center of Food Industry Research and Development Institute in Taiwan or ATCC. […] The diameter of sterile paper disc was 6 mm. The positive bacterial inhibition effect was determined by bacterial inhibition zone over 6 mm in diameter. Otherwise, it was defined as negative bacterial inhibition effect. Cultural condition was under the temperature of 37 for 24 hours. […] The inhibition zone values were shown as mean±S.D. (n=3).

[3] = test system: Porphyromonas gingivalis (ATCC 33277); assay: Disc agar diffusion test; format: cell-based; details: 6 mm paper disc, 37, 24 hours, mean±S.D. (n=3)
Procedure: as §4

[4] = test system: Streptococcus sanguis (ATCC 49295); assay: Disc agar diffusion test; format: cell-based; details: 6 mm paper disc, 37, 24 hours, mean±S.D. (n=3)
Procedure: as §4

[5] = test system: Actinomyces viscosus (ATCC 15987); assay: Disc agar diffusion test; format: cell-based; details: 6 mm paper disc, 37, 24 hours, mean±S.D. (n=3)
Procedure: as §4

[6] = test system: artificially induced periodontal disease (ligature wire, Streptococcus mutans); assay: Evaluation of therapeutic effect for animal periodontal disease; format: in vivo, Balb/c mice; details: treatment groups; for periodontal pocket improvement percentage (percentage of improving individual): Mann-Whitney test vs tMT
Procedure: as §1
Twelve of 8-week-old female Balb/c mice were selected for each group (Table 3). […] After diagnosis of diseased tissue by chief dentists, they were administered with different concentrations of Lactobacillus salivarius SG-M6 fermentation product, live Lactobacillus salivarius SG-M6, 1 mL of 0.267 mg/mL tetracycline or distilled water every day. The pathological symptoms were recorded. Wire was removed at the beginning of the treatment and periodontal pathogen inoculation was terminated. At day 4, 8, 12, and 16 after wire removal, mice periodontal pocket depth was examined. 3 mice from each group were killed for blood sampling and samples were collected for histological analysis.
as §2, §3

For `CN(C)[C@@H]1C(O)=C(C(N)=O)C(=O)[C@@]2(O)C(O)=C3C(=O)c4c(O)cccc4[C@@](C)(O)[C@H]3C[C@@H]12` [Tetracycline, tetracycline], the “periodontal pocket improvement percentage (percentage of improving individual)” value ([1]; Day 4) was 62%, the periodontal pocket depth ([1]; Day 4, Table 11, comparison with day 4) was 0.84 ± 0.50 mm and the periodontal pocket depth ([1]; Day 4 after wire removal, compared with pMT) was 0.84 ± 0.50 mm. For the same molecule, the “periodontal pocket improvement percentage (percentage of improving individual)” value ([1]; Day 8) was 50%, the periodontal pocket depth ([1]; Day 8, Table 11, comparison with day 4) was 0.70 ± 0.34 mm and the periodontal pocket depth ([1]; Day 8, compared with pMT) was 0.70 ± 0.34 mm. The “periodontal pocket improvement percentage (percentage of improving individual)” value ([1]; Day 12) was 71%, the periodontal pocket depth ([1]; Day 12, Table 11, comparison with day 4) was 0.65 ± 0.26 mm and the periodontal pocket depth ([1]; Day 12, compared with pMT) was 0.56 ± 0.26 mm. For the same molecule, the “periodontal pocket improvement percentage (percentage of improving individual)” value ([1]; Day 16) was 100%, the periodontal pocket depth ([1]; Day 16, Table 11, comparison with day 4) was 0.49 ± 0.25 mm and the periodontal pocket depth ([1]; Day 16, compared with pMT) was 0.49 ± 0.25 mm. The inhibition zone [2] was 29.7 ± 2.0^ mm, the inhibition zone [3] was 33.4 ± 2.2^ mm and the inhibition zone [4] was 25.9 ± 1.2^ mm. The inhibition zone [5] was 48.2 ± 2.4^ mm, the “periodontal pocket improvement percentage (percentage of improving individual)” value ([6]; Day 4) was 30% and the periodontal pocket depth ([6]; Day 4, Table 13, comparison with day 4) was 1.05 ± 0.64 mm. For the same molecule, the periodontal pocket depth ([6]; Day 4, compared with tMT) was 1.05 ± 0.64 mm, the “periodontal pocket improvement percentage (percentage of improving individual)” value ([6]; Day 8) was 20% and the periodontal pocket depth ([6]; Day 8, Table 13, comparison with day 4) was 0.89 ± 0.44 mm. The periodontal pocket depth ([6]; Day 8, compared with tMT) was 0.89 ± 0.44 mm, the “periodontal pocket improvement percentage (percentage of improving individual)” value ([6]; Day 12) was 47% and the periodontal pocket depth ([6]; Day 12, Table 13, comparison with day 4) was 0.63 ± 0.37 mm. The periodontal pocket depth ([6]; Day 12, compared with tMT) was 0.63 ± 0.37 mm, the “periodontal pocket improvement percentage (percentage of improving individual)” value ([6]; Day 16) was 33% and the periodontal pocket depth ([6]; Day 16, Table 13, comparison with day 4) was 0.61 ± 0.34 mm. The periodontal pocket depth ([6]; Day 16, compared with tMT) was 0.48 ± 0.33 mm.
